Measured values reported in PubChem BioAssay AID624339 (Sanford-Burnham Center for Chemical Genomics, 2012).
Calls of active or inactive are those of the source. The rule behind the calls is not given here.

System: PAMPA artificial membrane permeability, pH 7.4
Experiment: passive permeability across artificial membrane, ADME assay, biophysical (AID 624339)
Details: at 100 µM, active compounds read high

Row | Structure (SMILES) | permeability Pe (with 20% ACN) | permeability Pe
1 | Cc1ccc(C(=O)n2c3ccccc3c3ccccc32)cc1 | 352 10-6 cm/s | –
2 | O=C(O)c1cccnc1SCCc1ccccc1 | – | 17 10-6 cm/s
3 | Cc1ccc(NC(=O)CCC(=O)N/N=C/c2ccc([N+](=O)[O-])o2)cc1C | – | 37 10-6 cm/s
4 | COc1ccc(CSc2nc(C)cc(=O)[nH]2)cc1 | – | 165 10-6 cm/s
5 | O=C(CSc1cccc2cccnc12)N1CCCC1 | – | 101 10-6 cm/s
6 | CCCn1ncc(CN2CCCC(C(=O)c3cccc(OC(C)C)c3)C2)c1C (stereo not drawn) | – | 1310 10-6 cm/s
7 | O=S1(=O)Nc2c(ccc3cccnc23)-c2ccccc21 | – | 75 10-6 cm/s
8 | Cc1cc(C)n(-c2nc(NCCCO)c3c4c(sc3n2)CCCC4)n1 | – | 1130 10-6 cm/s
9 | CCOc1ccc(NC(=S)N2CCC(C(O)(c3ccccc3)c3ccccc3)CC2)cc1 | – | 682 10-6 cm/s
10 | O=c1oc2c(O)c(O)cc3c(=O)oc4c(O)c(O)cc1c4c23 | – | 3.1 10-6 cm/s (inactive)
11 | CCCOc1ccc(-c2nc(OC)c3ccccc3n2)cc1 | – | 26 10-6 cm/s
12 | COc1ccc(S(=O)(=O)n2nc(OC(=O)c3ccccc3)cc2N)cc1 | – | 459 10-6 cm/s
13 | O=C(CCNS(=O)(=O)c1cccc2nsnc12)N1CCN(c2ccccn2)CC1 | – | 143 10-6 cm/s
14 | Cc1ccnc(NC(=O)CCCOc2cc(=O)n(C)c3ccccc23)c1 | – | 510 10-6 cm/s
15 | O=c1[nH]c2c(s1)C(c1cccnc1)C1C3CCC(C3)C1S2 (stereo not drawn) | – | 830 10-6 cm/s
16 | c1ccc2c(Nc3nnc(-c4ccncc4)s3)cccc2c1 | – | 211 10-6 cm/s
17 | O=C(c1ccccn1)N(Cc1cccs1)C1(C(=O)NC2CCCCC2)CCCCC1 | – | 1580 10-6 cm/s
18 | Cc1ccc(S(=O)(=O)NCc2ccc(C(=O)NCCN(Cc3ccccc3)C(C)C)cc2)cc1 | – | 1480 10-6 cm/s
19 | C/C=C/Cn1c(SCCCc2ccccc2)nc2c1c(=O)[nH]c(=O)n2C | – | 1340 10-6 cm/s
20 | CN1CSC(=S)N(C)C1 | – | 18 10-6 cm/s
21 | O=C1CCCC2=C1C1(CCCC1)N=C(Nc1nc3ccccc3o1)N2 | – | 436 10-6 cm/s
22 | COc1ccc(C2CC(c3ccccc3)=NN2c2ccc(S(N)(=O)=O)cc2)cc1 (stereo not drawn) | – | 278 10-6 cm/s

Row | Structure (SMILES) | permeability Pe (with 20% ACN) | permeability Pe
23 | CN(C)C1=C(Cl)C(=O)N(c2ccc(Cl)c(Cl)c2)C1=O | 381 10-6 cm/s | –
24 | c1ccc(-c2nnc(N3CCOCC3)nc2-c2ccccc2)cc1 | – | 1490 10-6 cm/s
25 | COc1cccc(-c2nc(-c3ccc(NC(=O)Cc4ccccc4OC)cc3)no2)c1 | 863 10-6 cm/s | –
26 | COc1ccc(C2c3c(ncn(CCN4CCOCC4)c3=N)Oc3ccc4ccccc4c32)cc1OC (stereo not drawn) | – | 1440 10-6 cm/s
27 | Cc1ccc(S(=O)(=O)n2c(N)nc3ccccc32)cc1 | – | 370 10-6 cm/s
28 | COc1ccc(OC)c(-c2nnc3n2N=C(c2ccc(OC)c(OC)c2)CS3)c1 | – | 590 10-6 cm/s
29 | COc1nc(-c2ccccc2)nnc1-c1ccccc1 | – | 1240 10-6 cm/s
30 | CCOC(=O)C(C)Oc1cccc2c(=O)n(CC(=O)Nc3ccc4c(c3)OCCO4)ccc12 (stereo not drawn) | – | 441 10-6 cm/s
31 | Cn1cnc([N+](=O)[O-])c1Sc1ncnc2nc[nH]c12 | – | 3 10-6 cm/s (inactive)
32 | CN(C)c1oc(-c2ccc(OCc3ccc(Cl)cc3)cc2)nc1C#N | – | 208 10-6 cm/s
33 | COc1ccc(Sc2ccc(NC(=O)c3ccccc3Cl)cc2C#N)cc1 | 487 10-6 cm/s | –
34 | O=C1C2CC=CCC2C(=O)N1c1n[nH]c(-c2ccccc2)n1 (stereo not drawn) | – | 63 10-6 cm/s
35 | N#Cc1ccccc1CSc1nc2ncc(Br)cc2[nH]1 | – | 144 10-6 cm/s
36 | Brc1ccc2c(c1)CN1CCCC1=N2 | – | 786 10-6 cm/s
37 | COc1ccc(OC)c(S(=O)(=O)Nc2cnc3ccccc3c2)c1 | – | 706 10-6 cm/s
38 | Oc1cc(O)cc(/C=C/c2ccc(O)c(O)c2)c1 | – | 1.2 10-6 cm/s (inactive)
39 | C=CCn1c(SCC(=O)c2ccc(O)c(O)c2)nnc1-c1ccccc1OC | – | 88 10-6 cm/s
40 | COc1ccc(S(=O)(=O)N2CCN(S(=O)(=O)c3ccc4c(c3)OCCO4)CC2)cc1 | – | 562 10-6 cm/s
41 | O=C(O)c1ccc(N2C(=O)/C(=C/c3ccc(-c4ccc([N+](=O)[O-])cc4)o3)C=C2c2ccccc2)cc1 | – | < 0.8 10-6 cm/s (inactive)
42 | CC(C)C(=O)NC(c1ccco1)c1ccc2cccnc2c1O (stereo not drawn) | – | 286 10-6 cm/s
43 | NC(=O)C1CCN(c2nc(-c3ccc(Br)cc3)cs2)CC1 | – | 284 10-6 cm/s
44 | CCCc1cc(C(=O)N(C2CCCCC2)C2CCCCC2)no1 | – | 0.01 10-6 cm/s (inactive)

Row | Structure (SMILES) | permeability Pe (with 20% ACN) | permeability Pe
45 | O=S(=O)(NC1CCCCC1N1CCOCC1)c1ccc(Cl)cc1 (stereo not drawn) | – | 815 10-6 cm/s
46 | CCc1oc2ccccc2c1C(=O)c1cc(Br)c(O)c(Br)c1 | – | 71 10-6 cm/s
47 | COC(=O)c1ccccc1NC(=O)c1ccc(F)cc1 | – | 629 10-6 cm/s
48 | COc1ccc(N(C(=O)CCl)C(C(=O)NCCc2ccccc2)c2cccs2)cc1Cl (stereo not drawn) | – | 568 10-6 cm/s
49 | CC1CCCN(C(C(=O)Nc2ccc3c(c2)OCCO3)c2ccccc2)C1 (stereo not drawn) | – | 2010 10-6 cm/s
50 | Cc1cc(-c2nnc3n2CCCCC3)c(C)n1-c1ccccc1 | – | 393 10-6 cm/s
51 | COc1cc(NC(=O)c2cc(C3CC3)on2)c(OC)cc1Cl | – | 720 10-6 cm/s
52 | Cc1ccc(C)c(OCCn2cc(C(=O)O)c3ccccc32)c1 | – | 256 10-6 cm/s
53 | Cc1ccc(NS(=O)(=O)c2ccc3c(c2)CCC(=O)N3)cc1C | – | 622 10-6 cm/s
54 | O=c1c2ccccc2[se]n1-c1ccccc1 | – | 448 10-6 cm/s
55 | O=C(COC(=O)C12CC3CC(CC(C3)C1)C2)NCc1ccco1 | – | 195 10-6 cm/s
56 | CC(=O)c1ccc(N2CCN(S(=O)(=O)c3ccc4c(c3)CC(=O)N4)CC2)cc1 | – | 194 10-6 cm/s
57 | CN(C)c1nc(N)nc(CSc2nnnn2-c2cccc3ccccc23)n1 | – | 268 10-6 cm/s
58 | O=C(COc1ccccc1Br)NCCc1nc2ccccc2[nH]1 | – | 795 10-6 cm/s
59 | COc1ccc(CNCc2cccc3ccccc23)cc1 | – | 1130 10-6 cm/s
60 | CCOc1ccc(-c2nc(-c3ccncc3)no2)cc1OCC | – | 1030 10-6 cm/s
61 | CS(=O)(=O)c1ccc(C(=O)OCC(=O)NC23CC4CC(CC(C4)C2)C3)cc1[N+](=O)[O-] | – | 443 10-6 cm/s
62 | N#C/C(=C\c1ccc([N+](=O)[O-])o1)c1nc2ccccc2[nH]1 | – | 145 10-6 cm/s
63 | Cc1cc2c(s1)c1cnn(Cc3ccccc3F)c(=O)c1n2C | – | 913 10-6 cm/s
64 | Cc1ccc(C)c(NS(=O)(=O)c2cc(C(=O)Nc3ccccc3-c3ccccc3)ccc2Cl)c1 | 253 10-6 cm/s | –
65 | COc1ccccc1N(/N=C1\Sc2ccccc2C1=O)C(C)=O | – | 831 10-6 cm/s
66 | O=C(O)c1ccccc1OCc1ccccc1Br | – | 22 10-6 cm/s

Row | Structure (SMILES) | permeability Pe (with 20% ACN) | permeability Pe
67 | CSc1nc(-c2ccc(C)cc2)nc(C(Cl)Cl)n1 | 154 10-6 cm/s | –
68 | Cc1cc(C(=O)CN2C(=O)CCC2=O)c(C)n1Cc1ccccc1 | – | 250 10-6 cm/s
69 | O=C1NCCCc2c1oc1ccc(O)cc21 | – | 13 10-6 cm/s
70 | Cc1cc(C)nc(-n2nc(C)c(Sc3ccc(F)cc3)c2N)n1 | – | 1020 10-6 cm/s
71 | Cn1nnnc1Sc1ncnc2scc(-c3ccccc3)c12 | – | 973 10-6 cm/s
72 | O=[N+]([O-])c1ccc(CN2CCOCCOCCN(Cc3ccc([N+](=O)[O-])cc3)CCOCC2)cc1 | – | 1080 10-6 cm/s
73 | Cc1ccc(-n2c(N)c(C#N)c(-c3ccccc3)c(C#N)c2=O)cc1 | – | 67 10-6 cm/s
74 | c1ccc(CC2CCN(c3ncnc4sccc34)CC2)cc1 | – | 1020 10-6 cm/s
75 | CCN1CCN(c2nc3ccccc3nc2C(C#N)C(=O)OC2CCCCC2)CC1 (stereo not drawn) | – | 2130 10-6 cm/s
76 | CCCC(=O)Nc1cccc(NC(=O)c2ccccc2Br)c1 | – | 190 10-6 cm/s
77 | O=c1c(O)c(-c2cc(O)c(O)c(O)c2)oc2cc(O)cc(O)c12 | – | 1.7 10-6 cm/s (inactive)
78 | Cc1ccccc1N1CCN(c2ncnc3c2cnn3Cc2ccc(Cl)cc2)CC1 | 1100 10-6 cm/s | –
79 | Brc1cc2c(cc1C1Nc3ccccc3C3C=CCC31)OCO2 (stereo not drawn) | – | 37 10-6 cm/s
80 | CCc1nnc(NC(=O)c2ccc(NS(=O)(=O)c3ccccc3)cc2)s1 | – | 163 10-6 cm/s
81 | Cc1cccc(-n2cnc3cc(C(=O)N4CCCCC4)ccc32)c1 | – | 748 10-6 cm/s
82 | O=C(O)CCC(NS(=O)(=O)c1ccc(-c2ccccc2)cc1)C(=O)O (stereo not drawn) | – | < 0.4 10-6 cm/s (inactive)
83 | CCCN1CNc2c(c(=O)[nH]c(=S)n2CCc2ccc(OC)c(OC)c2)C1 | – | 75 10-6 cm/s
84 | Cc1nc(SCc2nc3ccccc3[nH]2)c2oc3ccccc3c2n1 | – | 720 10-6 cm/s
85 | Cc1ccc(N2CCN(S(=O)(=O)N3CCCCC3)CC2)c(C)c1 | – | 263 10-6 cm/s
86 | O=c1[nH]c(SCc2ccc(Cl)cc2)nc2c1CCC2 | – | 631 10-6 cm/s
87 | CCCN(CCC)CCNC(=O)C1CCN(Cc2nc(-c3ccc(Cl)cc3)oc2C)CC1 | – | 1860 10-6 cm/s
88 | CCCc1nc2c(=O)n(C)c(=O)nc-2n(C)n1 | – | 0 10-6 cm/s (inactive)
